Reference: patent US10047105B2, “Gyrase inhibitors” (Merck Sharp & Dohme Corp., priority 2009, dated 2018)
Values after ≈ are worked out from the molar mass of the structure shown.

Experiments:
S. aureus ATCC 13709 = assay: MIC, antibacterial potency, S. aureus; format: cell-based; conditions: S. aureus
S. pneumoniae ATCC 51916 = assay: MIC, S. pneumoniae; format: cell-based; conditions: S. pneumoniae

Compound	MIC, SA (S. aureus ATCC 13709)	MIC Spn52 (S. pneumoniae ATCC 51916)
CCc1[nH]c2nc(Sc3cnc4nccnc4c3)nc(N3CC(N(C)C(=O)OC(C)(C)C)C3)c2c1Cl.O=C(O)C(F)(F)F [700,601]	≤ 0.5 µg/mL	2 µg/mL
CCc1[nH]c2nc(Sc3cnc4nccnc4c3)nc(N3CC(CN(C)C)C3)c2c1Cl.O=C(O)C(F)(F)F.O=C(O)C(F)(F)F [700,602]	4 µg/mL	4 µg/mL
CCc1[nH]c2nc(Sc3cnc4nccnc4c3)nc(N3CC(N(C)C)C3)c2c1Cl.O=C(O)C(F)(F)F.O=C(O)C(F)(F)F [700,603]	4 µg/mL	8 µg/mL
CCc1[nH]c2nc(Sc3cnc4nccnc4c3)nc(N3CC(N4CCCC4)C3)c2c1Cl.O=C(O)C(F)(F)F.O=C(O)C(F)(F)F [700,604]	4 µg/mL	8 µg/mL
CCc1[nH]c2nc(Sc3cnc4nccnc4c3)nc(N3CC(N4CCCCC4)C3)c2c1Cl.O=C(O)C(F)(F)F.O=C(O)C(F)(F)F [700,605]	4 µg/mL	8 µg/mL
CCc1[nH]c2nc(Sc3cnc4nccnc4c3)nc(N3CC(N4CCOCC4)C3)c2c1Cl.O=C(O)C(F)(F)F.O=C(O)C(F)(F)F [700,606]	2 µg/mL	4 µg/mL
CCc1[nH]c2nc(Sc3cnc4nccnc4c3)nc(N3CC(C)(CN)C3)c2c1Cl.O=C(O)C(F)(F)F.O=C(O)C(F)(F)F [700,607]	8 µg/mL	16 µg/mL
CCc1[nH]c2nc(Sc3cnc4nccnc4c3)nc(N3CC4C(C3)C4NC(=O)OC(C)(C)C)c2c1Cl.O=C(O)C(F)(F)F.O=C(O)C(F)(F)F (stereo not shown) [700,608]	1 µg/mL	2 µg/mL
CCc1[nH]c2nc(Sc3ccc4nnc(C(=O)NC[C@H](C)O)nc4c3)nc(N3CC(N)C3)c2c1Cl [700,611]	2 µg/mL (≈ 3.89 µM)	8 µg/mL (≈ 15.6 µM)
CCc1[nH]c2nc(Cl)nc(Oc3ccc4nccnc4c3)c2c1Cl [700,612]	> 64 µg/mL	> 64 µg/mL
CCc1[nH]c2nc(Oc3ccc4nccnc4c3)nc(Oc3ccc4nccnc4c3)c2c1Cl [700,613]	≤ 0.5 µg/mL	4 µg/mL (≈ 8.51 µM)
CCc1[nH]c2nc(Oc3cnc4c(cnn4C)c3)nc(Oc3cnc4c(cnn4C)c3)c2c1Cl [700,614]	2 µg/mL (≈ 4.2 µM)	16 µg/mL (≈ 33.6 µM)
CCc1[nH]c2nc(Oc3cnc4c(cnn4C)c3)nc(Oc3cccnc3)c2c1Cl [700,615]	≤ 0.5 µg/mL	4 µg/mL (≈ 9.48 µM)
CCc1[nH]c2nc(Sc3cnc4nccnc4c3)nc(N3CC[C@@H](N)C3)c2c1Cl [700,618]	≤ 0.5 µg/mL	2 µg/mL (≈ 4.68 µM)
CCc1[nH]c2nc(Sc3ccc4nnc(C(=O)NCCCN5CCN(C)CC5)nc4c3)nc(N3CC[C@@H](N)C3)c2c1Cl [700,619]	32 µg/mL (≈ 52.4 µM)	32 µg/mL (≈ 52.4 µM)
CCc1[nH]c2nc(Sc3ccc4c(N5CC(N)C5)cc(C(=O)O)nc4c3)nc(N3CC[C@@H](N)C3)c2c1Cl [700,620]	32 µg/mL (≈ 59.4 µM)	> 64 µg/mL
CCc1[nH]c2nc(Oc3cccnc3)nc(Oc3cncnc3)c2c1Br.O=C(O)C(F)(F)F [700,621]	4 µg/mL	8 µg/mL
CCc1[nH]c2nc(Sc3cc(=O)[nH]c(=O)[nH]3)nc(N3CC4CNC4C3)c2c1Cl.O=C(O)C(F)(F)F (stereo not shown) [700,627]	4 µg/mL	16 µg/mL
CCc1[nH]c2nc(Sc3cc(=O)n(C)c(=O)[nH]3)nc(N3CC4CNC4C3)c2c1Cl.O=C(O)C(F)(F)F (stereo not shown) [700,628]	2 µg/mL	8 µg/mL
CCc1[nH]c2nc(Sc3cnc4nccnc4c3)nc(N3CC(C)(NC(=O)OC(C)(C)C)C3)c2c1Cl.O=C(O)C(F)(F)F [700,629]	≤ 0.5 µg/mL	2 µg/mL

Compound	MIC, SA (S. aureus ATCC 13709)	MIC Spn52 (S. pneumoniae ATCC 51916)
CCc1[nH]c2nc(Sc3cnc4nccnc4c3)nc(N3CC(C)(N)C3)c2c1Cl.O=C(O)C(F)(F)F.O=C(O)C(F)(F)F [700,630]	4 µg/mL	8 µg/mL
CCc1[nH]c2nc(Oc3cncnc3)nc(Oc3cncc(OC)c3)c2c1Cl.O=C(O)C(F)(F)F [700,648]	≤ 0.5 µg/mL	2 µg/mL
CCc1[nH]c2nc(Oc3cnc4ccoc4c3)nc(Oc3cncc(OC)c3)c2c1Cl.O=C(O)C(F)(F)F [700,649]	≤ 0.5 µg/mL	2 µg/mL
CCc1[nH]c2nc(Oc3cnc4ccoc4c3)nc(Oc3cnc4ccoc4c3)c2c1Cl.O=C(O)C(F)(F)F [700,650]	≤ 0.5 µg/mL	1 µg/mL
CCc1[nH]c2nc(Oc3cccnc3)nc(Oc3cccnc3)c2c1C(F)(F)F.O=C(O)C(F)(F)F [700,654]	> 64 µg/mL	> 64 µg/mL
CCc1[nH]c2nc(Sc3cnc4nccnc4c3)nc(N3CC4CC3CN4)c2c1Cl.O=C(O)C(F)(F)F (stereo not shown) [700,655]	> 64 µg/mL	2 µg/mL
CCc1[nH]c2nc(Sc3cnc4nccnc4c3)nc(N3CCC(C(O)c4cccs4)CC3)c2c1Cl.O=C(O)C(F)(F)F (stereo not shown) [700,656]	≤ 0.5 µg/mL	2 µg/mL
CCc1[nH]c2nc(Sc3cnc4nccnc4c3)nc(N3CC[C@H](O)[C@H]3CO)c2c1Cl [700,657]	8 µg/mL (≈ 17.5 µM)	2 µg/mL (≈ 4.37 µM)
CCc1[nH]c2nc(Sc3cnc4nccnc4c3)nc(N3CC4C(C3)C4NC(=N)N)c2c1Cl (stereo not shown) [700,658]	≤ 0.5 µg/mL	8 µg/mL (≈ 16.6 µM)
CCc1[nH]c2nc(Sc3cnc4cccnc4c3)nc(N3CC[C@H](O)[C@H]3CO)c2c1Cl [700,659]	4 µg/mL (≈ 8.75 µM)	2 µg/mL (≈ 4.38 µM)
CCc1[nH]c2nc(Sc3cnc4cccnc4c3)nc(N3CC4CNC4C3)c2c1Cl (stereo not shown) [700,660]	≤ 0.5 µg/mL	1 µg/mL (≈ 2.28 µM)
CCc1[nH]c2nc(Sc3ccc4c(N5CC(N)C5)cc(C(=O)O)nc4c3)nc(N3CC4C(N)C4C3)c2c1Cl (stereo not shown) [700,661]	> 64 µg/mL	> 64 µg/mL
CCOc1nc(Oc2ccc3c(N)nc(C)nc3c2)nc2[nH]c(CC)c(Cl)c12.O=C(O)C(F)(F)F [700,664]	2 µg/mL	4 µg/mL
CCOc1nc(Oc2cccnc2)nc2[nH]c(CC)c(Cl)c12.O=C(O)C(F)(F)F [700,665]	2 µg/mL	8 µg/mL
CCc1[nH]c2nc(Sc3ccc(C#N)c(F)c3)nc(N3CC[C@@H](N)C3)c2c1Cl.O=C(O)C(F)(F)F [700,666]	2 µg/mL	4 µg/mL
CCc1[nH]c2nc(Sc3cnc4nccnc4c3)nc(N3CC(Oc4cccnc4)C3)c2c1Cl.O=C(O)C(F)(F)F.O=C(O)C(F)(F)F [700,667]	≤ 0.5 µg/mL	1 µg/mL
CCc1[nH]c2nc(Sc3cnc4nccnc4c3)nc(N3CC(Oc4ccc(OC)cc4)C3)c2c1Cl.O=C(O)C(F)(F)F [700,668]	8 µg/mL	> 64 µg/mL
CCc1[nH]c2nc(Sc3cnc4nccnc4c3)nc(N3CC(Oc4ccc(C(F)(F)F)cc4)C3)c2c1Cl.O=C(O)C(F)(F)F [700,669]	> 64 µg/mL	> 64 µg/mL
CCc1[nH]c2nc(Sc3cnc4nccnc4c3)nc(N3CC(C(N)=O)C3)c2c1Cl.O=C(O)C(F)(F)F [700,670]	16 µg/mL	16 µg/mL
CCc1[nH]c2nc(Sc3cnc4nccnc4c3)nc(N3CC(N4CCN(C(=O)OC(C)(C)C)CC4)C3)c2c1Cl.O=C(O)C(F)(F)F.O=C(O)C(F)(F)F [700,671]	8 µg/mL	32 µg/mL

Compound	MIC, SA (S. aureus ATCC 13709)	MIC Spn52 (S. pneumoniae ATCC 51916)
CCc1[nH]c2nc(Sc3cnc4nccnc4c3)nc(N3CC(N4CCNCC4)C3)c2c1Cl.O=C(O)C(F)(F)F.O=C(O)C(F)(F)F [700,672]	8 µg/mL	8 µg/mL
CCc1[nH]c2nc(Sc3cnc4nccnc4c3)nc(N3CC4CNC4C3)c2c1Br.O=C(O)C(F)(F)F (stereo not shown) [700,673]	2 µg/mL	4 µg/mL
CCc1[nH]c2nc(Sc3cnc4ccoc4c3)nc(N3CCC(N)C3)c2c1Cl.O=C(O)C(F)(F)F (stereo not shown) [700,676]	4 µg/mL	8 µg/mL
CCc1[nH]c2nc(Sc3cnc4ccoc4c3)nc(N3CC4CNC4C3)c2c1Cl.O=C(O)C(F)(F)F (stereo not shown) [700,677]	2 µg/mL	8 µg/mL
CCc1[nH]c2nc(Sc3cnc4nccnc4c3)nc(N3CC(N)C4(CC4)C3)c2c1Cl.O=C(O)C(F)(F)F (stereo not shown) [700,678]	1 µg/mL	2 µg/mL
CCc1[nH]c2nc(Sc3cnc4ccoc4c3)nc(N3CCC(N)C3)c2c1Br.O=C(O)C(F)(F)F (stereo not shown) [700,679]	> 64 µg/mL	> 64 µg/mL
CCc1[nH]c2nc(Sc3cnc4ccoc4c3)nc(N3CC4CNC4C3)c2c1Br.O=C(O)C(F)(F)F (stereo not shown) [700,680]	16 µg/mL	64 µg/mL
CCc1[nH]c2nc(Sc3cnc4nccnc4c3)nc(Oc3cncc(OC)c3)c2c1Cl [700,686]	> 64 µg/mL	> 64 µg/mL
CCc1[nH]c2nc(Sc3ccc4c(N)ncnc4c3)nc(Oc3cncc(OC)c3)c2c1Cl [700,687]	> 64 µg/mL	> 64 µg/mL
CCc1[nH]c2nc(Sc3cnc4nccnc4c3)nc(N3CCC[C@H]3COC)c2c1Cl [700,688]	≤ 0.5 µg/mL	≤ 0.5 µg/mL
CCc1[nH]c2nc(Sc3ccc4c(N)ncnc4c3)nc(N3CC4CNC4C3)c2c1Cl (stereo not shown) [700,689]	2 µg/mL (≈ 4.42 µM)	8 µg/mL (≈ 17.7 µM)
CCOc1nc(Oc2ccc3nc(C)ccc3c2)nc2[nH]c(CC)c(Cl)c12.O=C(O)C(F)(F)F [700,690]	> 64 µg/mL	8 µg/mL
CCOc1nc(Oc2ccc3ccncc3c2)nc2[nH]c(CC)c(Cl)c12.O=C(O)C(F)(F)F [700,691]	> 64 µg/mL	> 64 µg/mL
CCc1[nH]c2nc(Sc3ccc4nc[nH]c(=O)c4c3)nc(N3CC(N)C3)c2c1Cl.O=C(O)C(F)(F)F [700,694]	2 µg/mL	8 µg/mL
CCc1[nH]c2nc(Sc3ccc4cc(C(=O)N5CC[C@@H](N)C5)cnc4c3)nc(N3CC[C@@H](N)C3)c2c1Cl [700,695]	16 µg/mL (≈ 29.8 µM)	32 µg/mL (≈ 59.6 µM)
CCc1[nH]c2nc(Sc3cnc4[nH]c(C(F)(F)F)nc4c3)nc(N3CC[C@@H](N)C3)c2c1Cl [700,696]	> 64 µg/mL	16 µg/mL (≈ 33.1 µM)
CCc1[nH]c2nc(Sc3ccc4cc(C(=O)N[C@H]5CCOC5=O)cnc4c3)nc(N3CC[C@@H](N)C3)c2c1Cl [700,697]	4 µg/mL (≈ 7.25 µM)	8 µg/mL (≈ 14.5 µM)
CCc1[nH]c2nc(Sc3ccc4cc(C(=O)OC)cnc4c3)nc(N3CC[C@@H](N)C3)c2c1Cl [700,698]	≤ 0.5 µg/mL	8 µg/mL (≈ 16.6 µM)
CCOc1nc(Oc2ccc3[nH]ccc3c2)nc2[nH]c(CC)c(Cl)c12.O=C(O)C(F)(F)F [700,699]	2 µg/mL	64 µg/mL
